Measured values from article PMC9608142, “Population pharmacokinetic analysis, renal safety, and dosing optimization of polymyxin B in lung transplant recipients with pneumonia: A prospective study” (Frontiers in Pharmacology, 2022).
Read-outs that look alike come from different tables or passages of the source. Bridge positions count the residues as written; N and C are the ends. Square brackets hold non-standard residues; d marks the D form. Peptide text beside a SMILES is read from it. * marks the point of attachment. X1 = CC[C@H](C)CCCCC(=O)*; Dab = NCC[C@H](N)C(=O)O

How the values were obtained:
[1] = cited from earlier work
Source text: Supplement DataSheet1.docx, table 2: Table S2. […] The urinary recovery of polymyxin B is low and non-renal clearance is considered the major route of the clearance of polymyxin B ([Tsuji et al., 2019]), but it undergoes extensive reabsorption by renal tubular cells ([Nang et al., 2021]). […] The ratio of the area of unbound concentration-time curve to the MIC (fAUC/MIC) is the best PK/PD index predicting bacterial killing for polymyxins ([Dudhani et al., 2010a]; [Dudhani et al., 2010b]; [Cheah et al., 2015]). The fAUC/MIC value ≥20 at various MICs (0.5–2 mg/L) was used as the target ([Sandri et al., 2013]), where f (assumed to be 0.42) is the unbound fraction of polymyxin B ([Sandri et al., 2013]). The probability of target attain ... || (+ 2 further places)

[2] = parenteral polymyxin B, mouse infection studies; ref Nang et al., 2021; cited from earlier work
Source text: The urinary recovery of polymyxin B is low and non-renal clearance is considered the major route of the clearance of polymyxin B ([Tsuji et al., 2019]), but it undergoes extensive reabsorption by renal tubular cells ([Nang et al., 2021]).

[3] = Population pharmacokinetic analysis (NONMEM) of polymyxin B plasma concentrations in lung transplant recipients; assay type: in vivo, human
Source text: (§1) This prospective study was approved by the Ethical Committees of the affiliated Wuxi People’s Hospital of Nanjing Medical University, China (KS202002), in accordance with the Declaration of Helsinki. The informed consent was obtained from each patient or his/her legal representatives. Adult lung transplant recipients receiving polymyxin B sulfate against confirmed MDR Gram-negative bacterial infections at the affiliated Wuxi People’s Hospital of Nanjing Medical University, from January 2020 to December 2021, were included in this study. The inclusion criteria were as follows: 1) ≥18 years old; 2) diagnosis of pneumonia; 3) receiving polymyxin B therapy for at least 3 days; 4) having at least one plasma concentration of polymyxin B. The exclusion criteria were as follows: 1) allergic or intolerant to polymyxin B; 2) died within 24 h after being treated with polymyxin B.
(§2) The decision to administer polymyxin B (sulfate, Polymyxin B for Injection, Shanghai Number one Biochemical and Pharmaceutical, Shanghai, China) and its medication, including the amount, dosing interval, administration route, and treatment duration, were decided by the attending physician. Generally, the loading dose of 2.0–2.5 mg/kg, and the maintenance dose of 1.25–1.5 mg/kg given every 12 h infused over 1 h was recommended according to the guideline for optimizing polymyxins ([Tsuji et al., 2019]). In addition, inhalation of polymyxin B sulfate (25 mg q12h) was combinedly used.
All the blood samples were collected at least 48 h after initiating polymyxin B ([Tsuji et al., 2019]). In each patient, four blood samples were collected: 0.5 h before starting the infusion, 1, 2, and 6 h after completing the infusion, respectively. After sampling, blood samples were immediately centrifuged at 15,000 rpm for 5 min and stored at −80°C. The concentrations of polymyxin B in the blood samples were determined by a validated high-performance liquid chromatography-tandem mass spectrometry (LC-MS/MS) assay ([Thomas et al., 2012]). The calibration range of polymyxin B by the method was 0.1–30 μg/ml. The method validations including selectivity, recovery, precision, accuracy, matrix effect, calibration curve, and stability met the requirement of FDA principles.
Nonlinear mixed-effects modeling (NONMEM) program (version 7.4, Icon Development Solutions, Ellicott City, MD, United States) and Pirana (version 2.9.7) was used to perform PK analysis of polymyxin B. R (Version 3.6.1) was used to analyze the NONMEM output. The first-order conditional estimation with the interaction between inter-patient variability and residual variability was used for model development.
One- or two-compartment structural model with first-order elimination were explored for the concentration-time profiles. Visual inspection of diagnostic plots and goodness-of-fit criteria, condition number, and improvement of the objective function value (OFV) were performed to evaluate the base model. The pharmacokinetic parameters used for this study were clearance (CL) and volume of distribution (V). Between-subject variability (BSV) was assessed using the exponential model (Eq. 1). Pi=P×EXP(ETA( ηi)) (1) Pi was the individual patient PK parameter; P was the typical value; ηi was the interpatient random variation.
Residual variability was assessed by additive (Eq. 2), proportional (Eq. 3), or combined (additive plus proportional) (Eq. 4) error models, respectively. The optimal one was chosen based on the decrease in OFV. Y=F+EPS (1) (2) Y=F+F×EPS (1) (3) Y=F+F×EPS (1)+EPS(2) (4) Y was the individual observed concentration; F was the individual predictive concentration; EPS was the residual random variation.
Relationships between the potential covariates and individual PK parameters were examined visually. […]

[4] = tested on: carbapenem-resistant organisms (A. baumannii, P. aeruginosa, K. pneumoniae, E. cloacae); experiment: Clinical treatment efficacy and microbiological efficacy in lung transplant recipients with pneumonia; assay type: in vivo, human
Source text: as §1
The demographic characteristics, laboratory data, pathogenic bacteria, medication information, and adverse events of polymyxin B sulfate were acquired from the patients’ medical records. Clinical success was defined as improvement of clinical symptoms and parameters including body temperature, biochemistry indicators of infection (white cell count ≤ 10^9, C-reactive protein ≤10 mg/L, procalcitonin <0.05 ng/ml, and erythrocyte sedimentation rate <15 mm/h), and clinician-documented improvement at the end of treatment ([Yu et al., 2022]). RIFLE (Risk, Injury, Failure, Loss of function, and End-stage kidney disease) criteria were used to assess the acute kidney injury (AKI) caused by polymyxin B ([Han et al., 2022]). The definition of nephrotoxicity caused by polymyxin B was further confirmed using the Naranjo criteria. Hyperpigmentation is defined as the darkening of the skin’s natural color, usually due to an increase in melanin deposition in the epidermis or dermis ([Lu and Hou, 2020]).
as §2

Acinetobacter Baumannii = conditions: thigh infection model, ref Cheah et al., 2015; cited from earlier work
Experimental: (§3) This is the first study to simulate the PTA and AUCss,24h of different dosage regimens in lung transplant patients. In vitro and animal studies pointed out that fAUC/MIC is the PK/PD index that is best correlated with the efficacy of polymyxins ([Tsuji et al., 2019]). In the thigh infection model, the fAUC/MIC values of colistin for 2log10 bacterial killings were approximately 20 for P. aeruginosa and Acinetobacter Baumannii ([Cheah et al., 2015]). Therefore, considering the similar molecular structures and in vitro activity of colistin and polymyxin B, the fAUC/MIC ≥20 was determined as the P ...

P. aeruginosa = conditions: thigh infection model, ref Cheah et al., 2015; cited from earlier work
Experimental: as §3

[5] = adult patients, n = 35, 1 CMT, ref Manchandani et al. 2018 [29]
[6] = adult patients, n = 43, 1 CMT, ref Kubin et al. 2018 [31]
[7] = adult patients, n = 46, 2 CMT, ref Wang et al. 2020 [27]
[8] = adult patients, n = 52, 2 CMT, ref Miglis et al. 2018 [28]
[9] = adult patients, n = 52, ref Miglis et al. 2018 [28]
[10] = critically ill patients, n = 24, 2 CMT, ref Sandri et al. 2013 [22]
[11] = bootstrap of final model, median estimate, 1,000 replicates

CC[C@H](C)CCCCC(=O)N[C@@H](CCN)C(=O)N[C@H](C(=O)N[C@@H](CCN)C(=O)N[C@H]1CCNC(=O)[C@H]([C@@H](C)O)NC(=O)[C@H](CCN)NC(=O)[C@H](CCN)NC(=O)[C@H](CC(C)C)NC(=O)[C@@H](Cc2ccccc2)NC(=O)[C@H](CCN)NC1=O)[C@@H](C)O [polymyxin B] (X1-[Dab]T[Dab][Dab][Dab][dF]L[Dab][Dab]T; lactam 4-C)
CL, typical value in PK formula ([1]; adult critically ill patients, n = 32, 1 CMT, CL = 1.59+(CrCL/80)^0.408, ref Yu et al. 2021 [26]): 1.59 L/h
V ([1]; adult critically ill patients, n = 32, 1 CMT, ref Yu et al. 2021 [26]): 20.5 L
CL (PK Parameters) ([1]; adult critically ill patients, n = 32, ref Yu et al. 2021 [26]): 1.75 L/h
CL in PK formula [1, 5]: 2.5 L/h
V [1, 5]: 34.3 L
CL (PK Parameters), mean ([1]; adult patients, n = 35, mean, ref Manchandani et al. 2018 [29]): 2.5 L/h
CL in PK formula [1, 6]: 2.37 L/h
V [1, 6]: 33.4 L
Q [1, 7]: 13.518 L/h
V [1, 7]: 6.218 L
V2 [1, 7]: 11.922 L
CL, typical value in PK formula ([1]; adult patients, n = 46, 2 CMT, ×(CrCL/105.9)^0.362, ref Wang et al. 2020 [27]): 1.786 L/h
CL (PK Parameters), median ([1]; adult patients, n = 46, median, ref Wang et al. 2020 [27]): 1.786 L/h
Q [1, 8]: 2.32 L/h
Vc [1, 8]: 33.77 L
Vp [1, 8]: 78.20 L
CL, typical value in PK formula ([1]; adult patients, n = 52, 2 CMT, ×(TBW/75)^0.75, ref Miglis et al. 2018 [28]): 2.63 L/h
CL (PK Parameters) [1, 9]: 2.63 ± 1.41 L/h
V (PK Parameters) [1, 9]: 33.77 ± 15.21 L
f, unbound fraction of polymyxin B ([1]; assumed value used for fAUC/MIC, ref Sandri et al., 2013): 0.42
effect of inhalation therapy on the exposure of polymyxin B in blood ([1]; co-inhalation 25 mg q12h, critically ill patients, ref Yu et al., 2021): did not significantly increase the exposure
CLic [1, 10]: 0.146 L/h/kg
V1 [1, 10]: 0.0939 L/kg
V2 [1, 10]: 0.330 L/kg
CL, typical value in PK formula ([1]; critically ill patients, n = 24, 2 CMT, ×(TBW/75)^0.75, ref Sandri et al. 2013 [22]): 0.0276 L/h/kg
urinary recovery ([1]; non-renal clearance considered the major route, ref Tsuji et al., 2019): low
CL, typical value in PK formula ([1]; renal transplant patients, n = 50, 1 CMT, CL = 1.18×(CrCL/22.2)^0.14, ref Li et al. 2021 [14]): 1.18 L/h
V ([1]; renal transplant patients, n = 50, 1 CMT, ref Li et al. 2021 [14]): 12.09 L
penetration in the lungs [2]: poor penetration in the lungs
θCL, typical value of clearance [3, 11]: 1.72 L/h
θV, typical value of volume of distribution [3, 11]: 14.3 L
effect of concomitant furosemide or albumin on the PK of polymyxin B ([3]; covariate test in lung transplant recipients, limited number of patients): did not significantly affect the PK
θV, typical value of volume of distribution ([3]; final model estimate, 1-compartment): 14.4 L
CrCL on CL (θ1), exponential value for CrCL as covariate of CL ([3]; final model estimate, CrCL/78.49): 0.681
clearance ([3]; human, plasma, iv, base model estimate (no covariate), read-out: TVCL, typical value of clearance (converted)): 27.5 mL/min
clearance ([3]; human, plasma, iv, final model estimate, 1-compartment, first-order elimination, at median CrCL 78.49 ml/min, read-out: θCL, typical value of clearance (converted)): 28.7 mL/min
clearance ([3]; human, plasma, iv, present study, lung transplant patients, n = 34, read-out: CL (PK Parameters) (converted)): 31.2 mL/min
Vd ([3]; human, plasma, iv, base model estimate, read-out: TVV, typical value of volume): 14.6 L
AUC ([3]; mean ± SD, 34 lung transplant recipients, AUC0-24 by linear-log trapezoidal rule from Bayesian-predicted concentrations, SD): 69.66 ± 35.92 mg·h/L
Clinical anti-infective outcome: Failed ([4]; 5 of 34 patients, iv plus inhaled polymyxin B): 5 (14.71%)
Clinical anti-infective outcome: Cured ([4]; 12 of 34 patients, iv plus inhaled polymyxin B, treatment 17.94 ± 7.13 days): 12 (35.29%)
Clinical anti-infective outcome: Improved ([4]; 17 of 34 patients, iv plus inhaled polymyxin B): 17 (50%)
patients considered of clinical cure or improved ([4]; 29 of 34 patients, end of treatment): 85.29%

colistin
fAUC/MIC value for 2log10 bacterial killings (Acinetobacter Baumannii): approximately 20
fAUC/MIC value for 2log10 bacterial killings (P. aeruginosa): approximately 20
